Measurements as given in ChEMBL document CHEMBL4184197 (Bioorg Med Chem, 2018).

Legend:
[1] = target: Proto-oncogene tyrosine-protein kinase Src (Homo sapiens) (UniProt P12931); test: Binding affinity to recombinant human Src at 10 uM after 10 mins by LANCE assay relative to control
[2] = target: Platelet-derived growth factor receptor (Mus musculus) (UniProt P05622+P26618); test: Binding affinity to mouse PDGFR at 10 uM after 180 mins by scintillation counting analysis relative to control; type: protein-complex assay
[3] = target: Endothelin receptor type B (Homo sapiens) (UniProt P24530); test: Binding affinity to recombinant human ETB receptor at 10 uM after 120 mins by scintillation counting analysis relative to control
[4] = target: Prostaglandin G/H synthase 1 (Homo sapiens) (UniProt P23219); test: Binding affinity to recombinant human COX1 at 10 uM after 3 mins by fluorescence assay relative to control
[5] = target: Glucocorticoid receptor (Homo sapiens) (UniProt P04150); test: Binding affinity to human GR at 10 uM after 360 mins by scintillation counting analysis relative to control
Chain of Glucocorticoid receptor (Homo sapiens) (P04150 whole entry): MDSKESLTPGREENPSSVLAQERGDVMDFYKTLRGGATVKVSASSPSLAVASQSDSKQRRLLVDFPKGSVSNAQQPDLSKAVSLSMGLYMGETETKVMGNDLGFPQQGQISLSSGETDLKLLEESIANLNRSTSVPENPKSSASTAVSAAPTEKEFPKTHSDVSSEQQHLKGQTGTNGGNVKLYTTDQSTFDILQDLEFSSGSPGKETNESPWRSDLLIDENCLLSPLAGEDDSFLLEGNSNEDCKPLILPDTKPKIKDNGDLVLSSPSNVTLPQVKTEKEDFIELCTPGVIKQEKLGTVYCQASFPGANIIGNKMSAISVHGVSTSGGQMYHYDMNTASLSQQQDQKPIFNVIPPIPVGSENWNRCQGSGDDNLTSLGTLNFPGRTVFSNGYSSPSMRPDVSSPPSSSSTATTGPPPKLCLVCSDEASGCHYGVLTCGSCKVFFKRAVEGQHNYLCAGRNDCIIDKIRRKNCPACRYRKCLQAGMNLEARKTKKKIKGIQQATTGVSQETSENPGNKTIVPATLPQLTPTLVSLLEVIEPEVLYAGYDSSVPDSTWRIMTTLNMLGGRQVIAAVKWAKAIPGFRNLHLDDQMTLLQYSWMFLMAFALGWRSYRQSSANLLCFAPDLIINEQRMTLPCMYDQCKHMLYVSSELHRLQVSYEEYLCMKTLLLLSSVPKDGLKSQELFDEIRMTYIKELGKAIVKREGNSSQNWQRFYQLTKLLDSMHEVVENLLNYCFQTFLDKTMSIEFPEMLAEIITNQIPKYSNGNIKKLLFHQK

Homo sapiens = species: Homo sapiens; test: Binding affinity to P2Y receptor (unknown origin) at 10 uM relative to control
[6] = target: Cholecystokinin receptor type A (Homo sapiens) (UniProt P32238); test: Binding affinity to recombinant human CCK1 at 10 uM after 60 mins by scintillation counting analysis relative to control
[7] = target: Kappa-type opioid receptor (Homo sapiens) (UniProt P41145); test: Binding affinity to human kappa opioid receptor at 10 uM after 60 mins by scintillation counting analysis relative to control
Chain of Kappa-type opioid receptor (Homo sapiens) (P41145 whole entry): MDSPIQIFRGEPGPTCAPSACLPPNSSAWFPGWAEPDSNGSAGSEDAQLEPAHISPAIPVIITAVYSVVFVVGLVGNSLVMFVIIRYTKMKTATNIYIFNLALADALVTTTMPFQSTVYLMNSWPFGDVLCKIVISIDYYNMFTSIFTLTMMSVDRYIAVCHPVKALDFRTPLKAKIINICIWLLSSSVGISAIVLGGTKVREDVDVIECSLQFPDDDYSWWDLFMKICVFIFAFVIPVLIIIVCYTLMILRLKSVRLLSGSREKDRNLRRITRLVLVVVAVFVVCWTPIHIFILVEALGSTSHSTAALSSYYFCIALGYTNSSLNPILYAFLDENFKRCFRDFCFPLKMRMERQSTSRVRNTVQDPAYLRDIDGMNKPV

[8] = target: Cathepsin D (Homo sapiens) (UniProt P07339); test: Binding affinity to human cathepsin D at 10 uM after 30 mins by fluorescence assay relative to control
Chain of Cathepsin D (Homo sapiens) (P07339 65-162 limits assumed): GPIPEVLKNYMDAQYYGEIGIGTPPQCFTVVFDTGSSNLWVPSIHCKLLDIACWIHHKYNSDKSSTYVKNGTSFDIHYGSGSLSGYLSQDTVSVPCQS
Chain of Cathepsin D (Homo sapiens) (P07339 169-412 limits assumed): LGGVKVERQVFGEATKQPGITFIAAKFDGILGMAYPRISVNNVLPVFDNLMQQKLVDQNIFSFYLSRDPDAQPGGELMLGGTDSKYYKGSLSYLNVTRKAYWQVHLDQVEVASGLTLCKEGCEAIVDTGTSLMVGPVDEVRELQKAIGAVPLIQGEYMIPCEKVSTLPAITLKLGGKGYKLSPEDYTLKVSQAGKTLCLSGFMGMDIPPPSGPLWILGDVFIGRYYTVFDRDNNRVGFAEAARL

[9] = target: Histone deacetylase 4 (Homo sapiens) (UniProt P56524); test: Binding affinity to recombinant human HDAC4 at 10 uM after 30 mins by fluorescence analysis relative to control
Chain of Histone deacetylase 4 (Homo sapiens) (P56524 whole entry): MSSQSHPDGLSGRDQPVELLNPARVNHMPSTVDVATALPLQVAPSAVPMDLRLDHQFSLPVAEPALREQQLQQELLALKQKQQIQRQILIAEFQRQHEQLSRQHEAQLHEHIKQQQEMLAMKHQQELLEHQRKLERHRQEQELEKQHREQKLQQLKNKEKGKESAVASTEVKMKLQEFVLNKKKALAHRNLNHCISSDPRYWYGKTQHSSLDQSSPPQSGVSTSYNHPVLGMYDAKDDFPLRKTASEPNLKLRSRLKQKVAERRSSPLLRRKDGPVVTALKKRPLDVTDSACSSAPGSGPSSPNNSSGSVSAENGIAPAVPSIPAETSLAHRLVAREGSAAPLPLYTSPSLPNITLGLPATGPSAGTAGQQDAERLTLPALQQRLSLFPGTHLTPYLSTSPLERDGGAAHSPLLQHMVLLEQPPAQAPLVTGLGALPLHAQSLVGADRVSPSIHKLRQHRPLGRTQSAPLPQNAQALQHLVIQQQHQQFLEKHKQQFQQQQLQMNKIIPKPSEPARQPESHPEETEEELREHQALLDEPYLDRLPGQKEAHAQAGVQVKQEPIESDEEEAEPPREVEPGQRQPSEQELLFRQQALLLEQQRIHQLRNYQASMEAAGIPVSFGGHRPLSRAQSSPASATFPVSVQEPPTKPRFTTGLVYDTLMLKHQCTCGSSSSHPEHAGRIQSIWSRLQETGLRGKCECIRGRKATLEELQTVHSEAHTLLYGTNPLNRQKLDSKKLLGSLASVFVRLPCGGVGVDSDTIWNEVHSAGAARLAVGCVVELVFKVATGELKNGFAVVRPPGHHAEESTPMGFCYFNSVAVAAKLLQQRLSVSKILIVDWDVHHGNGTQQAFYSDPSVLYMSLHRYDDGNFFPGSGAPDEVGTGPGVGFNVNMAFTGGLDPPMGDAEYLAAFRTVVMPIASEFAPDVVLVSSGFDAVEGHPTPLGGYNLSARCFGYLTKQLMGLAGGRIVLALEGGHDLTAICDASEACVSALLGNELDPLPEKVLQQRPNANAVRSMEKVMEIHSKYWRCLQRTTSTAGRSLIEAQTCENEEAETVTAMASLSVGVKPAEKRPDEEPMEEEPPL

[10] = target: 3-hydroxy-3-methylglutaryl-coenzyme A reductase (Homo sapiens) (UniProt P04035); test: Binding affinity to HMG-CoA reductase (unknown origin) at 10 uM by relative to control
[11] = target: Acetylcholinesterase (Homo sapiens) (UniProt P22303); test: Binding affinity to recombinant human acetylcholinesterase at 10 uM after 30 mins by spectrophotometric analysis relative to control
Chain of Acetylcholinesterase (Homo sapiens) (P22303 whole entry): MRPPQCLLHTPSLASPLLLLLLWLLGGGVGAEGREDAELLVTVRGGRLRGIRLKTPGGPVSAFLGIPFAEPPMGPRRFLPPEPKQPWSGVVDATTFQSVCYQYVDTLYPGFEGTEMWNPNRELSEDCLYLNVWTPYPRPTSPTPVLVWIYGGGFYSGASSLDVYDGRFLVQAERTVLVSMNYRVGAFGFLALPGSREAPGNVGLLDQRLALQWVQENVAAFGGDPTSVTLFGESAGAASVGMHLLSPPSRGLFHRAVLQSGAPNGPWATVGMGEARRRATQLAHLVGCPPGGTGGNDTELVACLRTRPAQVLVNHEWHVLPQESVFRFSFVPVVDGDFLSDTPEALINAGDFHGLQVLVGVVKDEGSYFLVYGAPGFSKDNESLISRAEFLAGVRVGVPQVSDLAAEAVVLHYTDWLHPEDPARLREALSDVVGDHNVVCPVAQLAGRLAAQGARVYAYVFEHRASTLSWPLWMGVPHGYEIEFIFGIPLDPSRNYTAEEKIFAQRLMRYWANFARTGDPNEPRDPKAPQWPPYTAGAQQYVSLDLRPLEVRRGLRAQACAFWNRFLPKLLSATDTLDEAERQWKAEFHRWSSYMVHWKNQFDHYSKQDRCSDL

[12] = target: Melatonin receptor type 1A (Homo sapiens) (UniProt P48039); test: Binding affinity to recombinant human MT1 receptor at 10 uM after 240 mins by scintillation counting analysis relative to control
Chain of Melatonin receptor type 1A (Homo sapiens) (P48039 whole entry): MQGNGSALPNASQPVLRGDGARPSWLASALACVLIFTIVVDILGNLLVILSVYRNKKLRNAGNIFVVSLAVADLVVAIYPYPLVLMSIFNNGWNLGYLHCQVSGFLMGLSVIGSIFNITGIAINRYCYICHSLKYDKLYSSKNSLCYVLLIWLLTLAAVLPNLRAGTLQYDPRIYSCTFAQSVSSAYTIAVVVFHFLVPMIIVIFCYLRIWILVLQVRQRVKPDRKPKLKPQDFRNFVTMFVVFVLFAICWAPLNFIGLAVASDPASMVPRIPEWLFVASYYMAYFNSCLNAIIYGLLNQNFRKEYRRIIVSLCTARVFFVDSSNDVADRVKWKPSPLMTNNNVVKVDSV

[13] = target: Muscarinic acetylcholine receptor M1 (Homo sapiens) (UniProt P11229); test: Binding affinity to recombinant human muscarinic M1 receptor at 10 uM after 60 mins by scintillation counting analysis relative to control
Chain of Muscarinic acetylcholine receptor M1 (Homo sapiens) (P11229 whole entry): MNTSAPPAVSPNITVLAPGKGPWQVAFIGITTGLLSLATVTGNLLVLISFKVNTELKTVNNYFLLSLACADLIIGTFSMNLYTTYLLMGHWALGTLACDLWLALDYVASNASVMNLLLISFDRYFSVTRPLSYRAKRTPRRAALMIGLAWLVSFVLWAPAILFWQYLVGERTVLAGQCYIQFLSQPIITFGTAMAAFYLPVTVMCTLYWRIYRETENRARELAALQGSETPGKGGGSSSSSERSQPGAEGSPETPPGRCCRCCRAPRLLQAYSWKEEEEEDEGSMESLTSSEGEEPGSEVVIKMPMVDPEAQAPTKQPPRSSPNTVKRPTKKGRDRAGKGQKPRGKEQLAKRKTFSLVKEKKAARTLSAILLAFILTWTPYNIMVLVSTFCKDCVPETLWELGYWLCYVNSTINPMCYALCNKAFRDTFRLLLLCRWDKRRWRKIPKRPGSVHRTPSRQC

[14] = target: Melanocortin receptor 4 (Homo sapiens) (UniProt P32245); test: Binding affinity to recombinant human MC4 receptor at 10 uM after 120 mins by scintillation counting analysis relative to control
[15] = target: Beta-2 adrenergic receptor (Homo sapiens) (UniProt P07550); test: Binding affinity to recombinant human beta2 receptor at 10 uM after 120 mins by scintillation counting analysis relative to control
Chain of Beta-2 adrenergic receptor (Homo sapiens) (P07550 whole entry, looked up): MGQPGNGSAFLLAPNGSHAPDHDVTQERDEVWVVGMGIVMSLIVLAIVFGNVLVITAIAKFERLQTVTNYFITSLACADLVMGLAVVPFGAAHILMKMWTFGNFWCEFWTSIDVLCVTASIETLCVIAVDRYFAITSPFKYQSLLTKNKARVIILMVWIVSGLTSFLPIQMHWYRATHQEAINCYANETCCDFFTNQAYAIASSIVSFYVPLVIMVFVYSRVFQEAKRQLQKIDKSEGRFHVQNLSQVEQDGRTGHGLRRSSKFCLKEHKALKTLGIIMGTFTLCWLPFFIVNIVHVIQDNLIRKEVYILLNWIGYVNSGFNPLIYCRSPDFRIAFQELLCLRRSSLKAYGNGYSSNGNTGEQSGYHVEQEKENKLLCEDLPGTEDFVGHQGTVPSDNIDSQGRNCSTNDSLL

[16] = target: Matrix metalloproteinase-9 (Homo sapiens) (UniProt P14780); test: Binding affinity to human MMP9 at 10 uM after 90 mins by fluorescence assay relative to control

Measured: Activity

Chain of Proto-oncogene tyrosine-protein kinase Src (Homo sapiens) (P12931 2-536 limits assumed): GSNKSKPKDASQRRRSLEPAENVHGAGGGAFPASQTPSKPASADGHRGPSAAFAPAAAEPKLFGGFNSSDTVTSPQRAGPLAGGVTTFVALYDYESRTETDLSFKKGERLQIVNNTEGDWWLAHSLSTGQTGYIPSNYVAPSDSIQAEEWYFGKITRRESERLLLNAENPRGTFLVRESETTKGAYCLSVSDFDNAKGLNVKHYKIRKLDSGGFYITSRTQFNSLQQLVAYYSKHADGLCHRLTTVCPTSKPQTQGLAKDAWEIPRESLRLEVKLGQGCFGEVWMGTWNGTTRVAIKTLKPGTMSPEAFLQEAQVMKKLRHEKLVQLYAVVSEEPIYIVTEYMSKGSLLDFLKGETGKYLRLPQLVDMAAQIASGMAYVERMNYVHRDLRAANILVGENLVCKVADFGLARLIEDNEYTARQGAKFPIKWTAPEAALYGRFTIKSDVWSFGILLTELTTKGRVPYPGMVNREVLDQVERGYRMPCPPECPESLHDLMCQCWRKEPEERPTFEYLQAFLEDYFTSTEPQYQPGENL

CCOc1c(Cl)cc(C(=O)Nc2ccc(C(=O)O)c(C)c2)cc1OC(C)C
< 25%: all assays above
